As usually defined, the IC50 is the concentration at which inhibition is half-maximal.

For this test, the target named is T1, calcium channel (Oryctolagus cuniculus, UniProt P15381).
T1 construct: from tissue; host or cells: rabbit heart membrane preparation
T1 sequence (P15381 whole entry, other chains not shown): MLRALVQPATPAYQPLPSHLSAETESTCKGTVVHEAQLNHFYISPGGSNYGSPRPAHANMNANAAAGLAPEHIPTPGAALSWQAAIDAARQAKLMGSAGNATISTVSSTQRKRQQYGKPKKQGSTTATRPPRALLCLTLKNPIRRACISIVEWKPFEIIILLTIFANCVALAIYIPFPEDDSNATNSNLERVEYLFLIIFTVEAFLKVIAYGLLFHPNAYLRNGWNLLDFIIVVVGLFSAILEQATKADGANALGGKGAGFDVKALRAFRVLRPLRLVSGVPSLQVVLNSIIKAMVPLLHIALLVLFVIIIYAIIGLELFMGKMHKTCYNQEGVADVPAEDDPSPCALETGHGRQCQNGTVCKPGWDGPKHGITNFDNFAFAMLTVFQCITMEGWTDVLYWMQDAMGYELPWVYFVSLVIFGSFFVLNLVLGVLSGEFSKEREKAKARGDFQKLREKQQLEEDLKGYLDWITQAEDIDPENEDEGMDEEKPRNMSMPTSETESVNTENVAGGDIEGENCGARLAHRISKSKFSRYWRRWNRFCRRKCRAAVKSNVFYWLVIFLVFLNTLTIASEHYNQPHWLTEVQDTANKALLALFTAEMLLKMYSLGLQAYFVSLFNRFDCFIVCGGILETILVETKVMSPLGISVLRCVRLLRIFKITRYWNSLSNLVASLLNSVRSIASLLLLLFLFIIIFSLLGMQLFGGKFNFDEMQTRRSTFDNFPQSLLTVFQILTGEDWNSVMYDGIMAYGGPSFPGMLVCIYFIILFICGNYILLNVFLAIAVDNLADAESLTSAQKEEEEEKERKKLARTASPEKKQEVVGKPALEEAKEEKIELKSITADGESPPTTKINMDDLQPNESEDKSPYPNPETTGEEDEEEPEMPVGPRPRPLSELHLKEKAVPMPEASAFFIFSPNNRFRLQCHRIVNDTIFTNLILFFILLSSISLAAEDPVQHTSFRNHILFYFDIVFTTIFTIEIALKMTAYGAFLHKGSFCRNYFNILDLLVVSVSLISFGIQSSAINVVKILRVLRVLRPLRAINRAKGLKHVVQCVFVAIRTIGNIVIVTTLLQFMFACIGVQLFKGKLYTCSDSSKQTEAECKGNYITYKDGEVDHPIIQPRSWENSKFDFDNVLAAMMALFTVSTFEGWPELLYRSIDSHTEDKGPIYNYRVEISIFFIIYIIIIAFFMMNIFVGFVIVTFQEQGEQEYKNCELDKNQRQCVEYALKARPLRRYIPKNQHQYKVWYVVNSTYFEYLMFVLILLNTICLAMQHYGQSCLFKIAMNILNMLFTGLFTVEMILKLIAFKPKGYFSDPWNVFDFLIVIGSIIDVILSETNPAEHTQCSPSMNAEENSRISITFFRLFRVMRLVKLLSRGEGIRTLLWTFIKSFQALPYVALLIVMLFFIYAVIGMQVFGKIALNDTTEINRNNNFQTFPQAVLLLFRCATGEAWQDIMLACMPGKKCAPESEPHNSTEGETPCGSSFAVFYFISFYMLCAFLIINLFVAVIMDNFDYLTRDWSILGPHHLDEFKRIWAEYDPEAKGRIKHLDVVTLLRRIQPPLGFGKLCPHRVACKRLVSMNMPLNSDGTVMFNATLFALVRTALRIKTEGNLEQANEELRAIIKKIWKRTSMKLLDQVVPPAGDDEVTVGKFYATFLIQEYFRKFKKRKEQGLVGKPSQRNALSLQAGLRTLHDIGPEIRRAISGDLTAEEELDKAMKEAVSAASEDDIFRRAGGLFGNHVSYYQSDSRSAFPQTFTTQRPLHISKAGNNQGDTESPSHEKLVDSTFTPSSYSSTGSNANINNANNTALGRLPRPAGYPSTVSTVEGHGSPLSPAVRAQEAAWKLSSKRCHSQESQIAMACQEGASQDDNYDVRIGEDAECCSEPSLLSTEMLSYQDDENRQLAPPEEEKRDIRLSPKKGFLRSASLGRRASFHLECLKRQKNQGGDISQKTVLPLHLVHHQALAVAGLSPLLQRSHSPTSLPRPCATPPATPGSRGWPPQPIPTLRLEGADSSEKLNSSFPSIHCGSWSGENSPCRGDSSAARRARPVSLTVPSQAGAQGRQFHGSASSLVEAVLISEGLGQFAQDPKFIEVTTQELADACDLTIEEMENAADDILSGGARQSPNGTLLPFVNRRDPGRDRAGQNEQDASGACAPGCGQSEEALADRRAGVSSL
T1 sequence (P13806 27-960 partner limits assumed, other chains not shown): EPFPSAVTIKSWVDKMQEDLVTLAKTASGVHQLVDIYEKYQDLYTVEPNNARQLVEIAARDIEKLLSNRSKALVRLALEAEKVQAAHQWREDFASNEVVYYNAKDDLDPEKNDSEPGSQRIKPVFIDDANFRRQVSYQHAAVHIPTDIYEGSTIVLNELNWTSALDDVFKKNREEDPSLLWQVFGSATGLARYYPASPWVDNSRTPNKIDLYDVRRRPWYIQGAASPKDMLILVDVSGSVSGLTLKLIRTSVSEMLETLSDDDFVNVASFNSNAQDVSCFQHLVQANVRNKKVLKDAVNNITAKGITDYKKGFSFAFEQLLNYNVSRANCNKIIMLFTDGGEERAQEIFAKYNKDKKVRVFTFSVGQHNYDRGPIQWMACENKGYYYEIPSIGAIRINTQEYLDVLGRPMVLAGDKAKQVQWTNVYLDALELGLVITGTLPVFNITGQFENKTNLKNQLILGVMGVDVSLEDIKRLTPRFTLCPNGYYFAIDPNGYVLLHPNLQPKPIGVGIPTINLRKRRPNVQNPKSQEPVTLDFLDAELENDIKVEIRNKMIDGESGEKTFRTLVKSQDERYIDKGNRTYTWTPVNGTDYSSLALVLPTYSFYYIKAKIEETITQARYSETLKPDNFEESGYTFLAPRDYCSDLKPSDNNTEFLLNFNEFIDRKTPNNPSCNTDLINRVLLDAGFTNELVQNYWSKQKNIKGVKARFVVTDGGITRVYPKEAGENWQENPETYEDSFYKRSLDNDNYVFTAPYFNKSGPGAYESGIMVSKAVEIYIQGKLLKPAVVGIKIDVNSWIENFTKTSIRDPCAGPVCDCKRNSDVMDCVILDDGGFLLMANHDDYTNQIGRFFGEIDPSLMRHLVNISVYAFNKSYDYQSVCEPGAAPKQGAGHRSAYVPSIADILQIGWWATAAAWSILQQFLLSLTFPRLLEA
T1 sequence (P13806 961-1106 partner limits assumed, other chains not shown): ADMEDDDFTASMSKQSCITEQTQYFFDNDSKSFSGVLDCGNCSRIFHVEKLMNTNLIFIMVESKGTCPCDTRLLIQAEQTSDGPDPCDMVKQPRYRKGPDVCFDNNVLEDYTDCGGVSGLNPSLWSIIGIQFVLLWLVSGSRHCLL
The test is described as follows: Assay for Inhibition of Nitrendipine Binding (3H-nitrendipine, heart membranes). Also noted: species or system rabbit. The following applies: Table 1, compounds of Formula I; 3H-nitrendipine displacement, rabbit heart membranes; read-out: Nitrendipine Binding Assay IC50. On the procedure: Assay for Inhibition of Nitrendipine Binding
Female, New Zealand white rabbits (1-2 kg) are sacrificed by cervical dislocation, and the heart is immediately removed, cleaned and chopped into small pieces. The tissue is homogenized in 5×times volume of 0.05M Hepes buffer, pH 7.4. The homogenate is centrifuged at 4000 g for 10 minutes, and the supernatant is re-centrifuged at 42,000×g for 90 minutes. The resulting membrane pellet is resuspended (0.7 ml/g weight) in 0.05M Hepes, pH 7.4 and stored at […] until used. Each tube of the binding assay contains ^3H-nitrendipine (0.05-0.50 nM), buffer, membranes (0.10 ml), and test compound in a total volume of 1.0 ml. After 90 minutes at 4° C., the bound nitrendipine is separated from the unbound by filtration on Whatman GF/C filters. After rinsing, the filters are dried and counted in a liquid scintillation counter.
Non-specific binding of ^3H-nitrendipine (that amount bound in the presence of excess unlabelled nitrendipine) is subtracted from the total bound to obtain specifically bound radiolabeled nitrendipine. The amount of specifically bound nitrendipine in the presence of a test compound is compared to that amount bound in the absence of a compound. A percent displacement (or inhibition) can then be calculated.
`COC(=O)C1=C(C)NC2=C(C1c1ccccc1Cl)S(=O)(=O)c1ccccc1[S+]([O-])C2` (stereo not shown) [Compound 1, 1H-[1,5]Benzodithiepino[3,2-b]pyridine-3-carboxylic acid, 4-(2-chlorophenyl)-4,11-dihydro-2-methyl, methyl ester, 5,5,10-trioxide]: the IC50 was determined as 14 nM.
For the compound `CC1=C(C(=O)OCCN(C)Cc2ccccc2)C(c2cccc(Cl)c2Cl)C2=C(CS(=O)(=O)c3ccccc3S2(=O)=O)N1` (stereo not shown) [Compound 2, 1H-[1,5]Benzodithiepino[3,2-b]pyridine-3-carboxylic acid, 4-(2,3-dichlorophenyl)-4,11-dihydro-2-methyl, 2-[methyl(phenylmethyl)amino]ethyl ester, 5,5,10,10-tetraoxide], the IC50 worked out at 20 nM.
The value for `CC1=C(C(=O)OCCN(C)Cc2ccccc2)C(c2ccccc2[N+](=O)[O-])C2=C(CS(=O)(=O)c3ccccc3S2(=O)=O)N1` (stereo not shown) [Compound 3, 1H-[1,5]Benzodithiepino[3,2-b]pyridine-3-carboxylic acid, 4,11-dihydro-2-methyl-4-(2-nitrophenyl), 2-[methyl(phenylmethyl)amino]ethyl ester, 5,5,10,10-tetraoxide] was 34 nM.
On to `CC1=C(C(=O)OCCN(C)Cc2ccccc2)C(c2cccc(Cl)c2)C2=C(CS(=O)(=O)c3ccccc3S2(=O)=O)N1` (stereo not shown) [Compound 4, 1H-[1,5]Benzodithiepino[3,2-b]pyridine-3-carboxylic acid, 4-(3-chlorophenyl)-4,11-dihydro-2-methyl, 2-[methyl(phenylmethyl)amino]ethyl ester, 5,5,10,10-tetraoxide], for which the IC50 worked out at 22 nM.
In the case of `COC(=O)C1=C(C)NC2=C(C1c1ccccc1Cl)S(=O)(=O)c1ccccc1S(=O)(=O)C2` (stereo not shown) [Compound 5, 1H-[1,5]Benzodithiepino[3,2-b]pyridine-3-carboxylic acid, 4-(2-chlorophenyl)-4,11-dihydro-2-methyl, methyl ester, 5,5,10,10-tetraoxide], the IC50 is 9 nM.
The value for `COC(=O)C1=C(C)NC2=C(C1c1cccc(Cl)c1)S(=O)(=O)c1ccccc1[S+]([O-])C2` (stereo not shown) [Compound 6, 1H-[1,5]Benzodithiepino[3,2-b]pyridine-3-carboxylic acid, 4-(3-chlorophenyl)-4,11-dihydro-2-methyl, methyl ester, 5,5,10-trioxide] was 20 nM; that for `COC(=O)C1=C(C)NC2=C(C1c1cccc(Cl)c1Cl)S(=O)(=O)c1ccccc1[S+]([O-])C2` (stereo not shown) [Compound 7, 1H-[1,5]Benzodithiepino[3,2-b]pyridine-3-carboxylic acid, 4-(2,3-dichlorophenyl)-4,11-dihydro-2-methyl, methyl ester, 5,5,10-trioxide] was 8 nM; that for `COC(=O)C1=C(C)NC2=C(C1c1cccc(Cl)c1Cl)S(=O)(=O)c1ccccc1S(=O)(=O)C2` (stereo not shown) [Compound 8, 1H-[1,5]Benzodithiepino[3,2-b]pyridine-3-carboxylic acid, 4-(2,3-dichlorophenyl)-4,11-dihydro-2-methyl, methyl ester, 5,5,10,10-tetraoxide] was 22 nM.
With `COC(=O)C1=C(C)NC2=C(C1c1cccc(Cl)c1)S(=O)(=O)c1ccccc1S(=O)(=O)C2` (stereo not shown) [Compound 9, 1H-[1,5]Benzodithiepino[3,2-b]pyridine-3-carboxylic acid, 4-(3-chlorophenyl)-4,11-dihydro-2-methyl, methyl ester, 5,5,10,10-tetraoxide], the IC50 is 10 nM.
Take `COC(=O)C1=C(C)NC2=C(C1c1ccccc1[N+](=O)[O-])S(=O)(=O)c1ccccc1S(=O)(=O)C2` (stereo not shown) [Compound 10]: the IC50 stood at 36 nM.
For `COC(=O)C1=C(C)NC2=C(C1c1c(F)c(F)c(F)c(F)c1F)S(=O)(=O)c1ccccc1S(=O)(=O)C2` (stereo not shown) [Compound 11, 1H-[1,5]Benzodithiepino[3,2-b]pyridine-3-carboxylic acid, 4,11-dihydro-2-methyl-4-(pentafluorophenyl), methyl ester, 5,5,10,10-tetraoxide], the IC50 is 12 nM.
In the case of `CC1=C(C(=O)OCCN(C)Cc2ccccc2)C(c2c(F)c(F)c(F)c(F)c2F)C2=C(CS(=O)(=O)c3ccccc3S2(=O)=O)N1` (stereo not shown) [Compound 12, 1H-[1,5]Benzodithiepino[3,2-b]pyridine-3-carboxylic acid, 4,11-dihydro-2-methyl-4-(pentafluorophenyl), 2-[methyl(phenylmethyl)amino]ethyl ester, 5,5,10,10-tetraoxide], the IC50 was determined as 21 nM.
In the case of `COC(=O)C1=C(C)NC2=C(C1c1cccc(C(F)(F)F)c1F)S(=O)(=O)c1ccccc1S(=O)(=O)C2` (stereo not shown) [Compound 13, 1H-[1,5]Benzodithiepino[3,2-b]pyridine-3-carboxylic acid, 4-[2-fluoro-3-(trifluoromethyl)phenyl]-4,11-dihydro-2-methyl, methyl ester, 5,5,10,10-tetraoxide], the IC50 is 14 nM.
`CC1=C(C(=O)OCCN(C)Cc2ccccc2)C(c2cccc(C(F)(F)F)c2F)C2=C(CS(=O)(=O)c3ccccc3S2(=O)=O)N1` (stereo not shown) [Compound 14, 1H-[1,5]Benzodithiepino[3,2-b]pyridine-3-carboxylic acid, 4-[2-fluoro-3-(trifluoromethyl)phenyl]-4,11-dihydro-2-methyl, 2-[methyl(phenylmethyl)-amino]ethyl ester, 5,5,10,10-tetraoxide]: the IC50 came to 58 nM.
On to `COC(=O)C1=C(C)NC2=C(C1c1cccc([N+](=O)[O-])c1)S(=O)(=O)c1ccccc1S(=O)(=O)C2` (stereo not shown) [Compound 15, 1H-[1,5]Benzodithiepino[3,2-b]pyridine-3-carboxylic acid, 4,11-dihydro-2-methyl-4-(3-nitrophenyl), methyl ester, 5,5,10,10-tetraoxide], for which the concentration for half-maximal inhibition (IC50) is 20 nM.
The value for `CC1=C(C(=O)OCCN(C)Cc2ccccc2)C(c2cccc([N+](=O)[O-])c2)C2=C(CS(=O)(=O)c3ccccc3S2(=O)=O)N1` (stereo not shown) [Compound 16, 1H-[1,5]Benzodithiepino[3,2-b]pyridine-3-carboxylic acid, 4,11-dihydro-2-methyl-4-(3-nitrophenyl), 2-[methyl(phenylmethyl)amino]ethyl ester, 5,5,10,10-tetraoxide] was 24 nM.
The value for `CC1=C(C(=O)OCCN(C)Cc2ccccc2)C(c2c(F)cccc2Cl)C2=C(CS(=O)(=O)c3ccccc3S2(=O)=O)N1` (stereo not shown) [Compound 17, 1H-[1,5]Benzodithiepino[3,2-b]pyridine-3-carboxylic acid, 4-(2-chloro-6-fluorophenyl)-4,11-dihydro-2-methyl, 2-[methyl(phenylmethyl)amino]ethyl ester, 5,5,10,10-tetraoxide] was 62 nM; that for `CC1=C(C(=O)OCCN(C)Cc2ccccc2)C(c2ccccc2Cl)C2=C(C[S+]([O-])c3ccccc3S2(=O)=O)N1` (stereo not shown) [Compound 18, 1H-[1,5]Benzodithiepino[3,2-b]pyridine-3-carboxylic acid, 4-(2-chlorophenyl)-4,11-dihydro-2-methyl, 2-[methyl(phenylmethyl)amino]ethyl ester, 5,5,10-trioxide] was 23 nM; that for `CC1=C(C(=O)OCCN(C)Cc2ccccc2)C(c2ccccc2Cl)C2=C(CS(=O)(=O)c3ccccc3S2(=O)=O)N1` (stereo not shown) [Compound 19, 1H-[1,5]Benzodithiepino[3,2-b]pyridine-3-carboxylic acid, 4-(2-chlorophenyl)-4,11-dihydro-2-methyl, 2-[methyl(phenylmethyl)amino]ethyl ester, 5,5,10,10-tetraoxide] was 18 nM.

These data come from patent publication US6472530B1, “Benzo-fused dithiepino[6,5-b]pyridines, and related compositions and methods” (Ortho-McNeil Pharmaceutical, Inc., priority 1999, dated 2002).
